Assay results from patent US7947661B2, “Compounds for the treatment of marihuana dependence, withdrawal, and usage” (priority 2004, dated 2011).

Assays:
[1] = system: cocaine-dependent subjects; assay: Weekly marihuana use from daily diaries, citicoline vs placebo for 8 weeks; type: in vivo, human; settings: citicoline treatment weeks 3-10, not dependent on cannabis
Protocol: FIG. 1 is a graph of a time course of weekly marihuana use in citicoline- and placebo-treated cocaine-dependent subjects. Subjects were treated with either citicoline or placebo for 8 weeks and then asked to keep track of their drug use patterns via a daily diary. Follow up weeks were conducted under a no drug condition.
Compared to placebo treatment, marihuana use was reduced during citicoline treatment (weeks 3-10) as reported using the daily diaries. […] There is a group difference at baseline; this difference occurred because subjects were not matched for marihuana use in this study, and these subjects were not dependent on cannabis.

[2] = cited from earlier work
cocaine dependent person = assay: Wrist accelerometer (ActiWatch) sleep wake activity and marihuana cigarettes in a representative subject; type: in vivo, human; settings: 500 mg twice daily citicoline, days 10-14 vs baseline
Protocol: FIG. 2 is a graph of activity of a representative cocaine dependent person two weeks prior to (Baseline) and two weeks after (Citicoline) treatment with citicoline. […] Marihuana cigarettes are depicted by the arrows. Each strip recording is a 24 hour period of consecutive days. Activity was determined by use of an accelerometer worn on the subject'[…] Score). Data in FIG. 2 also show a decrease in the number of marihuana cigarettes smoked and a more normalized, diurnal sleep pattern after treatment with citicoline. Subjects were given either placebo or 500 mg, twice daily of citicoline. […] The subject's binge use of marihuana (arrows on second day) is clearly defined. The bottom 4 tracings of FIG. 2 show the same subject on days 10-14 of citicoline treatment. […] This pattern continued throughout the 8 weeks of treatment for this subject.

[3] = cited from earlier work; remark: listed apart in the source
[4] = cited from earlier work; remark: listed apart in the source

SMILES: C[N+](C)(C)CCOP(=O)(O)OP(=O)([O-])OC[C@H]1O[C@@H](n2ccc(N)nc2=O)[C@H](O)[C@@H]1O [CDP-choline, cytidine 5′-diphosphocholine]
- marihuana use (cigarettes per week, daily diaries) compared to placebo [1]: reduced
- reported overdoses ([2]; in vivo): no reported cases of overdoses
- toxicity symptoms on ingestion of large amounts ([2]; preclinical studies): common cholinergic symptoms (salivation, lacrimation, urination, defecation, and vomiting)
- number of marihuana cigarettes smoked (cocaine dependent person): decrease
- sleep wake profile (accelerometer activity) (cocaine dependent person; continued throughout 8 weeks): more normalized diurnal pattern of sleeping at night and became more active during the day
- conversion into circulating metabolites ([3]; administered either orally or intravenously): rapidly converted into the two major circulating metabolites, choline and cytidine
- CDP-choline and/or its metabolites absorbed ([3]; orally administered): more than 99%
- excreted in feces ([3]; orally administered): less than 1%
- excretion via lung ([3]; share of dose): 12.9%
- excretion via urine ([3]; share of dose): 2.4%
- rest of the dose metabolized and retained in tissues ([3]; share of dose): 83.9%
- tolerability in mammals [4]: well tolerated

SMILES: CN(CC(=O)O)C(=N)N [Creatine, creatine]
- tolerability in humans [4]: well tolerated at relatively high doses

SMILES: CC(=O)OC[C@H]1O[C@@H](n2ccc(=O)[nH]c2=O)[C@H](OC(C)=O)[C@@H]1OC(C)=O [triacetyl uridine]
- tolerability in mammals [4]: well tolerated

SMILES: O=c1ccn([C@@H]2O[C@H](CO)[C@@H](O)[C@H]2O)c(=O)[nH]1 [uridine]
- tolerability in humans [4]: well tolerated
- tolerability in mammals [4]: well tolerated
